Measurements from PubChem BioAssay AID248 (DTP/NCI, 2004).
Toxic doses and inconclusive results are not listed. Cut-off read from the data, not from the text of the source: active = T/C of 150% or more; inactive = T/C below 125%.

System: L1210 leukemia ip in BDF1 mice, survival T/C
Experiment: NCI In Vivo Anticancer Drug Screen. Data for tumor model L1210 Leukemia (intraperitoneal) in B6D2F1 (BDF1) mice
Details: endpoint: mean survival time, higher = longer survival
In short: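 Transplanted-tumor mice were given test agent; controls received vehicle only. Survival readings from the two groups were divided (treated over control).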

[1] = dose: 100.0 mg/kg/injection, schedule: Q01DX009 (ip), vehicle: Klucel (hydroxypropylcellulose) (HPC)
[2] = dose: 100.0 mg/kg/injection, schedule: Q04DX003 (ip), vehicle: Klucel (hydroxypropylcellulose) (HPC)
[3] = dose: 200.0 mg/kg/injection, schedule: Q01DX009 (ip), vehicle: Klucel (hydroxypropylcellulose) (HPC)
[4] = dose: 200.0 mg/kg/injection, schedule: Q04DX003 (ip), vehicle: Klucel (hydroxypropylcellulose) (HPC)
[5] = dose: 400.0 mg/kg/injection, schedule: Q04DX003 (ip), vehicle: Klucel (hydroxypropylcellulose) (HPC)
[6] = dose: 100.0 mg/kg/injection, schedule: Q04DX003 (ip), vehicle: saline
[7] = dose: 200.0 mg/kg/injection, schedule: Q04DX003 (ip), vehicle: saline
[8] = dose: 400.0 mg/kg/injection, schedule: Q04DX003 (ip), vehicle: saline
[9] = dose: 100.0 mg/kg/injection, schedule: Q01DX009 (ip), vehicle: saline with Tween-80
[10] = dose: 200.0 mg/kg/injection, schedule: Q01DX009 (ip), vehicle: saline with Tween-80
[11] = dose: 100.0 mg/kg/injection, schedule: Q01DX001 (ip), vehicle: saline
[12] = dose: 200.0 mg/kg/injection, schedule: Q01DX001 (ip), vehicle: saline
[13] = dose: 400.0 mg/kg/injection, schedule: Q01DX001 (ip), vehicle: saline
[14] = dose: 100.0 mg/kg/injection, schedule: Q01DX001 (ip), vehicle: carboxymethylcellulose (CMC)
[15] = dose: 200.0 mg/kg/injection, schedule: Q01DX001 (ip), vehicle: carboxymethylcellulose (CMC)
[16] = dose: 400.0 mg/kg/injection, schedule: Q01DX001 (ip), vehicle: carboxymethylcellulose (CMC)

Measured: T/C

CN(C)C(=S)SCN1CCCCC1
inactive: [1] 103 % of control | [2] 96 % of control | [3] 97 % of control | [4] 104 % of control | [5] 107 % of control

CC(C)N(CCO)CCO
inactive: [6] 100 % of control | [7] 102 % of control | [8] 100 % of control

O=C(Nc1ccccc1)Nc1ccc(F)cc1
inactive: [9] 100 % of control | dose: 100.0 mg/kg/injection, schedule: Q04DX003 (ip), vehicle: saline with Tween-80 101 % of control | [10] 94 % of control | dose: 200.0 mg/kg/injection, schedule: Q04DX003 (ip), vehicle: saline with Tween-80 99 % of control | dose: 400.0 mg/kg/injection, schedule: Q01DX009 (ip), vehicle: saline with Tween-80 96 % of control | dose: 400.0 mg/kg/injection, schedule: Q04DX003 (ip), vehicle: saline with Tween-80 105 % of control

Cc1cc(P(=O)(O)O)ccc1Cl
inactive: dose: 100.0 mg/kg/injection, schedule: Q01DX009 (ip), vehicle: acetone 87 % of control | dose: 200.0 mg/kg/injection, schedule: Q01DX009 (ip), vehicle: acetone 90 % of control

O=C(CCl)NC1CCC(CC2CCCCC2)CC1 (stereo unspecified)
inactive: [2] 99 % of control | [4] 93 % of control | [5] 89 % of control

C[P+]1(c2ccccc2)C2C=CC=CC1C=C2 (stereo unspecified)
inactive: dose: 5.0 mg/kg/injection, schedule: Q01DX001 (ip), vehicle: carboxymethylcellulose (CMC) 100 % of control | dose: 10.0 mg/kg/injection, schedule: Q01DX001 (ip), vehicle: carboxymethylcellulose (CMC) 92 % of control | dose: 20.0 mg/kg/injection, schedule: Q01DX001 (ip), vehicle: carboxymethylcellulose (CMC) 97 % of control

IP(c1ccccc1)(c1ccccc1)(c1ccccc1)N1C2CCCCC21 (stereo unspecified)
inactive: dose: 0.15 mg/kg/injection, schedule: Q01DX009 (ip), vehicle: acetone 107 % of control | dose: 0.31 mg/kg/injection, schedule: Q01DX009 (ip), vehicle: acetone 115 % of control | dose: 0.62 mg/kg/injection, schedule: Q01DX009 (ip), vehicle: acetone 115 % of control | dose: 0.62 mg/kg/injection, schedule: Q01DX009 (ip), vehicle: saline 112 % of control | dose: 0.62 mg/kg/injection, schedule: Q04DX003 (ip), vehicle: saline 113 % of control | dose: 1.2 mg/kg/injection, schedule: Q01DX001 (ip), vehicle: acetone 114 % of control | dose: 1.25 mg/kg/injection, schedule: Q01DX009 (ip), vehicle: saline 104 % of control | dose: 1.25 mg/kg/injection, schedule: Q04DX003 (ip), vehicle: saline 93 % of control | dose: 2.5 mg/kg/injection, schedule: Q01DX001 (ip), vehicle: acetone 119 % of control | dose: 2.5 mg/kg/injection, schedule: Q01DX009 (ip), vehicle: saline 114 % of control

CCOC(=O)C1(C(=O)OCC)CC(C)C(=O)N1c1ccccc1OC (stereo unspecified)
inactive: dose: 100.0 mg/kg/injection, schedule: Q04DX002 (ip), vehicle: Klucel (hydroxypropylcellulose) (HPC) 100 % of control | dose: 200.0 mg/kg/injection, schedule: Q04DX002 (ip), vehicle: Klucel (hydroxypropylcellulose) (HPC) 89 % of control | dose: 400.0 mg/kg/injection, schedule: Q04DX002 (ip), vehicle: Klucel (hydroxypropylcellulose) (HPC) 100 % of control

O=C(C[n+]1ccccc1/C=N/Nc1ccccc1)c1ccccc1
inactive: dose: 75.0 mg/kg/injection, schedule: Q01DX001 (ip), vehicle: saline 95 % of control | dose: 150.0 mg/kg/injection, schedule: Q01DX001 (ip), vehicle: saline 95 % of control | dose: 300.0 mg/kg/injection, schedule: Q01DX001 (ip), vehicle: saline 97 % of control

COC1OC2COc3ccccc3OC2C(NC(N)=S)C1OC (stereo unspecified)
inactive: dose: 100.0 mg/kg/injection, schedule: Q01DX009 (ip), vehicle: gum acacia 107 % of control | dose: 200.0 mg/kg/injection, schedule: Q01DX009 (ip), vehicle: gum acacia 102 % of control | dose: 400.0 mg/kg/injection, schedule: Q01DX009 (ip), vehicle: gum acacia 93 % of control

CCCCN(CCCC)C(=O)CCC
inactive: [6] 102 % of control | [7] 95 % of control

O=C(Nc1ccccc1)c1ccc(N(CO)CO)cc1
inactive: [11] 98 % of control | [6] 94 % of control | [12] 101 % of control | [7] 120 % of control | [13] 93 % of control | [8] 96 % of control

OC(c1nc2ccc(Cl)cc2[nH]1)C(O)C(O)C(O)c1nc2ccc(Cl)cc2[nH]1 (stereo unspecified)
inactive: [14] 90 % of control | [15] 101 % of control | [16] 103 % of control

O=C1c2ccccc2CCC12OC2c1ccc(F)cc1 (stereo unspecified)
inactive: [2] 97 % of control | [4] 97 % of control | [5] 103 % of control

CCCCCC(OCC)(OCC)OCC
inactive: [1] 95 % of control | [2] 104 % of control | [3] 96 % of control | [4] 93 % of control | dose: 400.0 mg/kg/injection, schedule: Q01DX009 (ip), vehicle: Klucel (hydroxypropylcellulose) (HPC) 92 % of control | [5] 93 % of control

COc1cccc(/C=C/C(=O)C2CCCCC2)c1
inactive: dose: 50.0 mg/kg/injection, schedule: Q01DX009 (ip), vehicle: saline with Tween-80 101 % of control | [9] 97 % of control | [10] 101 % of control

Cc1c2oc3c(C)c([N+](=O)[O-])cc(C(=O)NC4C(=O)NC(C(C)C)C(=O)N5CCCC5C(=O)N(C)CC(=O)N(C)C(C(C)C)C(=O)OC4C)c3nc-2c(C(=O)NC2C(=O)NC(C(C)C)C(=O)N3CCCC3C(=O)N(C)CC(=O)N(C)C(C(C)C)C(=O)OC2C)c(N)c1=O (stereo unspecified)
inactive: dose: 75.0 micrograms/kg/injection, schedule: Q01DX009 (ip), vehicle: saline + alcohol 110 % of control | dose: 100.0 micrograms/kg/injection, schedule: Q01DX009 (ip), vehicle: saline + alcohol 116 % of control | dose: 150.0 micrograms/kg/injection, schedule: Q01DX009 (ip), vehicle: saline + alcohol 111 % of control | dose: 300.0 micrograms/kg/injection, schedule: Q01DX009 (ip), vehicle: saline + alcohol 108 % of control | dose: 400.0 micrograms/kg/injection, schedule: Q01DX009 (ip), vehicle: saline + alcohol 96 % of control | dose: 400.0 micrograms/kg/injection, schedule: Q04DX003 (ip), vehicle: saline + alcohol 124 % of control | dose: 600.0 micrograms/kg/injection, schedule: Q04DX003 (ip), vehicle: saline + alcohol 119 % of control | dose: 800.0 micrograms/kg/injection, schedule: Q04DX003 (ip), vehicle: saline + alcohol 106 % of control | dose: 1200.0 micrograms/kg/injection, schedule: Q04DX003 (ip), vehicle: saline + alcohol 111 % of control

Cc1nc(N)nc2c1CCC(=O)N2
inactive: [2] 100 % of control | [4] 89 % of control | [5] 94 % of control

CCCSc1ccc2c3c(cccc13)C(=O)OC2=O
inactive: [1] 101 % of control | [3] 98 % of control

O=C1c2ccccc2C(=O)N1[N+](=O)[O-]
inactive: dose: 50.0 mg/kg/injection, schedule: Q01DX001 (ip), vehicle: saline 101 % of control | [11] 107 % of control | [12] 107 % of control | [13] 103 % of control

COc1cccc(/C=C2\CCNC2=O)c1OC
inactive: dose: 50.0 mg/kg/injection, schedule: Q01DX001 (ip), vehicle: carboxymethylcellulose (CMC) 96 % of control | [14] 102 % of control | [15] 100 % of control | [16] 96 % of control
